For two compounds, Kis results are on record in ChEMBL document CHEMBL3272184.

Test [1] deals with T1, Acetylserotonin O-methyltransferase (Bos taurus) (UniProt P10950).
T1 sequence (whole entry): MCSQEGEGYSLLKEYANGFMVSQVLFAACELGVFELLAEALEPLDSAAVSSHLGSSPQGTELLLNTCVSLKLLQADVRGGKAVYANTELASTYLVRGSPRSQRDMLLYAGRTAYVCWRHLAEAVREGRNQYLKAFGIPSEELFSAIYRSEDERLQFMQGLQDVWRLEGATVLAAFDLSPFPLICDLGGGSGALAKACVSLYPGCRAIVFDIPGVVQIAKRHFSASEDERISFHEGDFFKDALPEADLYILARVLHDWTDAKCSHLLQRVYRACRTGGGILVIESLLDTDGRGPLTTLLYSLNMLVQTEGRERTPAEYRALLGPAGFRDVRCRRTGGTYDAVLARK
The test can be described thus: Inhibition of bovine pineal gland hydroxyindole O-methyltransferase using 24 to 210 uM S-adenosylmethionine substrate.

The target of test [2] is T2, Phenylethanolamine N-methyltransferase (Bos taurus) (UniProt P10938).
T2 sequence (whole entry): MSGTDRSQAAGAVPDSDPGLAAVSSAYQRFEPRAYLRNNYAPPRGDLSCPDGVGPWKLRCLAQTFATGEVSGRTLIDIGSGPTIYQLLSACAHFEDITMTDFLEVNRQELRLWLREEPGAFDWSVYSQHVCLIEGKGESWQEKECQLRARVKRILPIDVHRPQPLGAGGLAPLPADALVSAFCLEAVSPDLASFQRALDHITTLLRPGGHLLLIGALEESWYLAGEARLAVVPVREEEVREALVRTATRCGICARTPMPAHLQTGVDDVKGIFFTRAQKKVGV
The test can be described thus: Inhibition of bovine adrenal medulla phenylethanolamine N-methyltransferase using 24 to 210 uM S-adenosylmethionine substrate.

In test [3] the target is T3, Catechol O-methyltransferase (Rattus norvegicus) (UniProt P22734).
T3 sequence (whole entry): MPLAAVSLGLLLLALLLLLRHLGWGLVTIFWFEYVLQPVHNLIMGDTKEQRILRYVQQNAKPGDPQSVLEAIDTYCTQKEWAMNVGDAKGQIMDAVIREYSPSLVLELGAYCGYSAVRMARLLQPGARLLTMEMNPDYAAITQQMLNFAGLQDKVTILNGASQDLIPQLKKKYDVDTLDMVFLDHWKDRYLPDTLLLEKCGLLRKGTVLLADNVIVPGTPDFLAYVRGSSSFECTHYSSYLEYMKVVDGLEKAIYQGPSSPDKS
The test can be described thus: Inhibition of Sprague-Dawley rat liver catechol O-methyltransferase using 24 to 210 uM S-adenosylmethionine substrate.

Turning to `Nc1ncnc2c1ncn2[C@@H]1O[C@H](CSCC[C@H](N)C(=O)O)[C@@H](O)[C@H]1O`, the Kis in test [1] was 18.5 µM; in test [2], 29 µM; in test [3], 36.3 µM.

For the compound `Nc1ncnc2c1ncn2[C@@H]1C[C@@H](CSCC[C@H](N)C(=O)O)[C@@H](O)[C@H]1O`, the Kis in test [1] is 51.8 µM.
